# Measurements: patent US7351874B2, “Mouse model for fatty acid amide-related neurobehaviors” (The Scripps Research Institute, priority 2001, dated 2008)
# “Also recorded” adds a separate entry of the source.
# How the values were obtained:
# [1] = tested on: FAAH−/− and FAAH+/+ mice; experiment: Locomotor activity (hypomotility), grid crossings 15 to 20 min post-injection; assay type: in vivo, mouse
# Protocol: (§1) All drugs were administered intraperitoneal (ip) in a mixture of 1 part ethanol: 1 part EMULPHOR alcohol (GAF Corp.; New York N.Y.): 18 parts saline (10 μl/g body weight), except naloxone was administered ip in saline.
# (§2) Locomotor activity was assessed by placing each mouse in a clear plexiglass cage (18×10×8.5 inches; l.w.h) that was marked in 7 cm square grids on the floor of the cage. The number of grids that were traversed by the hind paws was counted from 15 to 20 min post-injection. Nociception was assessed using the tail immersion assay, wherein each mouse was hand-held with approximately 1 cm of the tip of the tail immersed into a water bath maintained at 56.0° C. and the latency for the animal to withdraw its tail was scored. The cutoff was 15 sec, and the data were expressed as the percent maximum possible effect (% MPE), where % MPE=100×{(post-injection latency−pre-injection latency)/(15−pre-injection latency)}. Baseline thermal nociception was also analyzed using the hot plate test, wherein the latency to jump or lick/shake a hind paw was scored.
# [2] = tested on: FAAH−/− and FAAH+/+ mice; experiment: Rectal temperature (hypothermia); assay type: in vivo, mouse
# Protocol: as §1
# (§3) Catalepsy was evaluated using the bar test, in which the front paws of each subject were placed on a rod (0.75 cm diameter) that was elevated 4.5 cm above the surface. Mice that remained motionless with their paws on the bar for 10 sec (with the exception of respiratory movements) were scored as cataleptic. Rectal temperature was determined by inserting a thermocouple probe 1.2 cm into the rectum; the temperature was obtained using a telethermometer. The pre-injection rectal temperatures for FAAH^+/+ (35.6±0.2° C., n=28) and FAAH^−/− mice (35.5±0.1° C., n=30) mice were equivalent. Catalepsy and rectal temperature were assessed at 60 min post-injection unless otherwise indicated.
# [3] = tested on: FAAH−/−, FAAH+/− and FAAH+/+ mice; experiment: Hot plate test, response latency before and after treatment; assay type: in vivo, mouse
# Protocol: as §2
# To test whether enhanced levels of endogenous anandamide were responsible for the analgesia observed in FAAH^−/− mice, the pain responses of these animals and FAAH^+/+ mice were tested prior to and after treatment with vehicle or with SR141716A.
# [4] = tested on: FAAH−/− and FAAH+/+ mice; experiment: Tail immersion assay (antinociception); assay type: in vivo, mouse
# Protocol: as §1, §2
# [5] = tested on: FAAH−/− and FAAH+/+ mice; experiment: Neurobehavioral assays taken together (hypomotility, analgesia, catalepsy, hypothermia); assay type: in vivo, mouse
# Protocol: as §1, §2
# Catalepsy was evaluated using the bar test, in which the front paws of each subject were placed on a rod (0.75 cm diameter) that was elevated 4.5 cm above the surface. Mice that remained motionless with their paws on the bar for 10 sec (with the exception of respiratory movements) were scored as cataleptic. Rectal temperature was determined by inserting a thermocouple probe 1.2 cm into the rectum; the temperature was obtained using a telethermometer. […] Catalepsy and rectal temperature were assessed at 60 min post-injection unless otherwise indicated.
# [6] = tested on: FAAH−/− and FAAH+/+ mice; experiment: Catalepsy bar test; assay type: in vivo, mouse
# Protocol: as §1, §3
# [7] = tested on: FAAH(−/−), FAAH-TG(+) and FAAH(−/−), FAAH-TG(−) mice; experiment: Pharmacological effects of anandamide in mice with FAAH expression restricted to the nervous system; assay type: in vivo, mouse; details: 50 mg/kg i.p.
# Protocol: Animals were tested at 20 minutes (A) and 60 minute (B and C) following treatment with anandamide. HT−=FAAH(+/−), FAAH-TG(−); KO+=FAAH(−/−), FAAH-TG(+); KO−=FAAH(−/−), FAAH-TG(−).
# Exogenously applied and endogenously produced fatty acid amides induce a variety of behavioral effects in mammals, which may reflect either central or peripheral sites of action. In wild type mammals, FAAH is not only expressed in the central and peripheral nervous system, but also in a variety of non-nervous system peripheral tissues, including liver, kidney, and testis. […] To address this issue, the mouse FAAH cDNA was placed under the control of the neural specific enolase (NSE) promoter (Forss-Petter et al. (1990) Neuron 5, 187-197) and this construct was used to generate transgenic mice (mixed background of C57Bl/6 and Balb/c) by pronuclear injection methods following standard literature procedures (Gordon, J. W. (1993) Methods Enzymol. 225, 747-771). These animals were screened by Southern blotting for genomic incorporation of the FAAH gene and multiple FAAH-positive transgenic [FAAH-TG(+)] lines were identified. One of these FAAH-TG(+) lines was then crossed to mice heterozygotic for FAAH deletion [FAAH(+/−) mice]. To create representative mouse genotypes for biochemical and behavioral analysis, the following breeding pairs were set up: FAAH(+/−),FAAH-TG(+)×FAAH(−/−),FAAH-TG(−). […]
# [8] = cited from earlier work
# [9] = tested on: FAAH−/− mice; experiment: Overt cage behavior after anandamide; assay type: in vivo, mouse
# Description: If startled by sound or touch, the knockout mice reacted with brief fits of spastic movement, then quickly reentered a flattened, immobile state. Anandamide-treated FAAH^−/− mice remained immobile for 2 to 4 hr, depending on dose, after which they gradually reinitiated normal cage activities, including movement, rearing, and grooming.
# [10] = target: T1, fatty acid amide hydrolase (FAAH) (Mus musculus, UniProt O08914); experiment: FAAH activity assay, conversion of 14C-labeled substrates by thin layer chromatography; assay type: biochemical; details: pH 7.2
# T1 construct: Brain and liver were isolated from homozygous wild type (FAAH^+/+), heterozygous (FAAH^+/−) and homozygous knockout (FAAH^−/−) mice; from tissue; host or cells: mouse brain and liver extracts (129SvJ-C57BL/6 intercross offspring)
# T1 sequence (O08914 1-579): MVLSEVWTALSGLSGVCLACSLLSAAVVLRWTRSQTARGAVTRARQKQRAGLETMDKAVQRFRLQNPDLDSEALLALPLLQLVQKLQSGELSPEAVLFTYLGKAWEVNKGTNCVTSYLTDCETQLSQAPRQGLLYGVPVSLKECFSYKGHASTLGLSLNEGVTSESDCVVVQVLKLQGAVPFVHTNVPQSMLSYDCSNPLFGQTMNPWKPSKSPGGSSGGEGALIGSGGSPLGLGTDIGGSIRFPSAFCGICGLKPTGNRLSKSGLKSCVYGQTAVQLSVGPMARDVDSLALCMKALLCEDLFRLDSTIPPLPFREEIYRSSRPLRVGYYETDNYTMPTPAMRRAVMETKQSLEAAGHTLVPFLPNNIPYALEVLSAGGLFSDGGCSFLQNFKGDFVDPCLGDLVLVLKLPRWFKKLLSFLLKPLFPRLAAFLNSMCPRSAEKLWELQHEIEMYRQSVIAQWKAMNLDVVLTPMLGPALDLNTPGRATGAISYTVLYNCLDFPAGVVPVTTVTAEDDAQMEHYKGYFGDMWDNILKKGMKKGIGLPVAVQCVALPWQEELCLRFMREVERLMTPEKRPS
# Protocol: The mice also were examined for FAAH enzymatic activity. FAAH activity assays for oleamide and anandamide were measured by following the conversion of ^14C-labeled substrates using a thin layer chromatography assay essentially as described by Patricelli et al. (Biochemistry 38:9804-9812, 1999), except that enzyme assays were conducted at pH 7.2. […] Brain extracts from FAAH^−/− mice hydrolyzed anandamide and oleamide 50 to 100 times more slowly than brain extracts from the homozygous wild type mice.
# [11] = FAAH−/− mice, 10 mg/kg, 10 min prior to anandamide 50 mg/kg
# [12] = FAAH−/− mice, 50 mg/kg ip, 60 min post-injection
compound,measurement,setting,value
Cc1c(C(=O)NN2CCCCC2)nn(-c2ccc(Cl)cc2Cl)c1-c1ccc(Cl)cc1 [SR141716A],effect of pretreatment on anandamide-induced hypomotility,[1]; [11],completely blocked
same,effect of pretreatment on anandamide-induced hypothermia,[2]; [11],completely blocked
same,change of hot plate response latency after treatment,"[3]; FAAH+/+ (b22 also FAAH+/−) mice, listed as SR141617A",No significant change from baseline; also recorded: modest increases in their hot plate response latencies that failed to reach significance
same,change of hot plate pain response latency after treatment,[3]; FAAH−/− mice,dramatic reduction
same,effect of pretreatment on anandamide-induced antinociception,[4]; [11],completely blocked
same,effect of pretreatment on all behavioral effects of anandamide,"[5]; FAAH−/− mice, 10 mg/kg ip, 10 min prior to anandamide 50 mg/kg",completely blocked
same,effect of pretreatment on anandamide-induced catalepsy,[6]; [11],completely blocked
"CCCCCc1cc(O)c2c(c1)OC(C)(C)[C@@H]1CCC(C)=C[C@@H]21 [THC, (−)-Δ^9-tetrahydrocannabinol]","dose response profiles in FAAH−/− versus FAAH+/+ mice, all behavioral assays tested","[5]; FAAH−/− and FAAH+/+ mice (Table 2, not given)",nearly identical
"CCCCC/C=C\C/C=C\C/C=C\C/C=C\CCCC(=O)NCCO [anandamide, N-arachidonoyl-ethanolamine]",reduction in spontaneous activity,"[1]; FAAH−/− mice, 50 mg/kg ip",84±8%
same,ED50,"[1]; Mus musculus, ip, read-out: ED50, hypomotility (locomotor activity)",< 6.25 mg/kg
same,behavioral effects in mice expressing FAAH only in the nervous system,"[7]; FAAH-TG(+) (KO+) mice, 50 mg/kg",sufficient to block the pharmacological effects; also recorded: dramatically reduced
same,behavioral effects in mice lacking FAAH,[7]; FAAH-TG(−) (KO−) mice,displayed significant behavioral effects
same,time at which rectal temperature began to return to wild type values,"[2]; FAAH−/− mice, 50 mg/kg",≤ 4 h
same,reduction in rectal temperature,[2]; [12],7.9±0.3 °C
same,ED50,"[2]; Mus musculus, ip, read-out: ED50, hypothermia (rectal temperature)",11 mg/kg
same,half-life in vivo,[8],on the order of minutes
same,time at which the behavioral impact was readily detected,[9],within five min of treatment
same,time the mice remained immobile,[9]; depending on dose,2 to 4 h
same,"analgesia in the tail immersion test, maximum possible effect (MPE)","[4]; FAAH−/− mice, 50 mg/kg ip",89±11%
same,ED50,"[4]; Mus musculus, ip, read-out: ED50, antinociception (tail-immersion)",13 mg/kg
same,behavioral effects in FAAH+/+ mice,"[5]; FAAH+/+ mice, 6.25 to 50 mg/kg ip",failed to produce any significant effects
same,state of treated FAAH−/− mice 24 hr after treatment,"[5]; FAAH−/− mice, 24 hr after treatment",indistinguishable from FAAH^+/+ mice
same,time by which catalepsy gradually dissipated,"[6]; FAAH−/− mice, 50 mg/kg",≤ 4 h
same,time post-treatment of most extreme catalepsy,"[6]; FAAH−/− mice, 50 mg/kg",1 h
same,"cataleptic behavior in the bar test, share of the test group",[6]; [12],88%
same,ED50,"[6]; Mus musculus, CL-11, ip, read-out: ED50, catalepsy",20 mg/kg
C=CCN1CC[C@]23c4c5ccc(O)c4O[C@H]2C(=O)CC[C@@]3(O)[C@H]1C5 [naloxone],effect of pretreatment on activity due to anandamide,"[5]; FAAH−/− mice, 2 mg/kg ip in saline",failed to reduce any activity
CCCCCCCC/C=C\CCCCCCCC(N)=O [oleamide],"hydrolysis by FAAH−/− brain extracts, times more slowly than homozygous wild type brain extracts",[10],50 to 100 times
